The test system of this test is Cryptococcus neoformans var. grubii H99. Nature of the test: Fungicidal efficacy (CFU survival rate) of AbA, AmB and their combination, with or without IPC. In kind it is cell-based. As to conditions: AmB 1 μg/mL, 1 hour in YPD medium; for the combination AbA 1 μg/mL added 6 hours before AmB. The protocol:
In this example, the antifungal activity of AbA was evaluated. Specifically, the inventors tested the activity of AbA alone and in combination with AmB against Cryptococcus. In addition, the inventors also tested the effect of purified IPC on the antifungal activity of AbA alone and in combination with AmB against Cryptococcus. The specific experimental procedures are as follows.
In this example, a total of 5 groups were set up, including AbA alone, AmB alone, AbA combined with AmB, AbA combined with AmB in the presence of 1 mg/mL IPC, and AbA combined with AmB in the presence of 10 mg/mL IPC. The fungicidal efficacy of the above 5 groups of treatments against Cryptococcus neoformans var. grubii H99 (a laboratory strain) was evaluated. The survival rate of Cryptococcus after 1 hour of treatment with AmB in YPD medium was determined by calculating the CFU ratio between AmB-treated and untreated samples. AbA and IPC were added 6 hours prior to AmB treatment as a pre-treatment. AbA was purchased from Biorigin, AmB from Inalco, and IPC was extracted from an ERG6 gene knockout H99 mutant strain defective in ergosterol biosynthesis.

Structures are written as SMILES.

For the compound `C[C@@H]1[C@H](O)[C@@H](C)/C=C/C=C/C=C/C=C/C=C/C=C/C=C/[C@H](O[C@@H]2O[C@H](C)[C@@H](O)[C@H](N)[C@@H]2O)C[C@@H]2O[C@](O)(C[C@@H](O)C[C@@H](O)[C@H](O)CC[C@@H](O)C[C@@H](O)CC(=O)O[C@H]1C)C[C@H](O)[C@H]2C(=O)O` [AmB, amphotericin B], the “survival rate of Cryptococcus neoformans (CFU ratio between AmB-treated and untreated samples)” value is 39%.
